The values below come from patent US20230127258A1, “COMPOSITION COMPRISING THROMBIN DERIVED PEPTIDES AND USE THEREOF” (In2Cure AB, priority 2019, published 2023).

The test system of assay [1] is S. aureus, P. aeruginosa and E. coli. The assay is described as follows: MIC and MBC of TCP-25 with EDTA, text summary for all three bacterial strains (FIG. 20B-C). The class given is cell-based.
Procedure: The minimal inhibitory concentration (MIC) was conducted according to standard protocol (Wiegand et al., 2008). A 1% bacterial solution was diluted 1:1000 times in 2×BBL™ Mueller Hinton (MH) II, cation adjusted broth (Becton, Dickinson and Company, Sparks, USA). […] Next, 50 μl of the bacterial solution was added. MH broth without bacteria was used as a sterile control, whereas supplemented only with bacteria as growth control. […] MIC was assessed as the lowest concentration of treatment that prevents visual bacterial growth in the wells. The MIC plates were then used to determine the minimal bactericidal concentration (MBC) for the various treatments. This was conducted by resuspending the solution in each well with a pipette and then plating 10 μl droplets on a THA plates which were then incubated in 37° C. overnight. MBC was established at concentration at which no bacterial colonies were observed.
For assay [2], the system named is P. aeruginosa-induced sepsis and LPS-mediated shock. To be noted: mouse models of endotoxic shock; cited from earlier work.
Assay [3] concerns LPS / TLR4- and TLR2-induced NF-kB activation. To be noted: cited from earlier work.

For `O=C(O)CN(CCN(CC(=O)O)CC(=O)O)CC(=O)O` [EDTA, ethylenediaminetetraacetic acid], in assay [1], the “antibacterial effect of EDTA alone” value is recorded as “some bacteriostatic effect”.
Turning to “HVFRLKKWIQKVIDQFGE (TCP-25 fragment; PEPTIDE (1)..(18) TCP-25 fragment) [HVF18]”, the mortality entry in assay [2] is reported as “reduce mortality”. Also, the anti-endotoxic functions result in assay [3] was “anti-endotoxic functions in vitro and in vivo”.
